# Measurements as given in article PMC3391414 (Journal of Agricultural and Food Chemistry, 2011).
# Entries after “also recorded” stand apart in the source; their conditions may differ.
# Tests used:
# [1] = molecular target: T1, UGT1A1 (Homo sapiens, UniProt P22309); test: Glucuronidation by recombinant human UGT1A1
# T1 sequence (P22309 26-533): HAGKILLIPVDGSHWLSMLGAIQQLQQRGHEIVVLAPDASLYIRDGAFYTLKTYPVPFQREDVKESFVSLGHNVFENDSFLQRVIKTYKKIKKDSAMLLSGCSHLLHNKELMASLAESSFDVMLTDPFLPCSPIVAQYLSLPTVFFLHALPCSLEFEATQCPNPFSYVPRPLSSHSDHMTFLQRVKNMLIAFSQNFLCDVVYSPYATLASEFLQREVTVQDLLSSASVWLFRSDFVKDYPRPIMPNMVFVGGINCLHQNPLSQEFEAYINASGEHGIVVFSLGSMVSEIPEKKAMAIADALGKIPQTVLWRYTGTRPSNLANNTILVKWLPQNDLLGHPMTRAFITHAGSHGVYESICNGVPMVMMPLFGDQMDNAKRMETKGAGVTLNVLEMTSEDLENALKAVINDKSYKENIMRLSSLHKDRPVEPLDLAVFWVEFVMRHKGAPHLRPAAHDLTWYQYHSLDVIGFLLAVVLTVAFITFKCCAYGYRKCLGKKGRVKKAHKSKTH
# [2] = molecular target: T2, UGT1A3 (Homo sapiens, UniProt P35503); test: Glucuronidation by recombinant human UGT1A3
# T2 sequence (P35503 29-534): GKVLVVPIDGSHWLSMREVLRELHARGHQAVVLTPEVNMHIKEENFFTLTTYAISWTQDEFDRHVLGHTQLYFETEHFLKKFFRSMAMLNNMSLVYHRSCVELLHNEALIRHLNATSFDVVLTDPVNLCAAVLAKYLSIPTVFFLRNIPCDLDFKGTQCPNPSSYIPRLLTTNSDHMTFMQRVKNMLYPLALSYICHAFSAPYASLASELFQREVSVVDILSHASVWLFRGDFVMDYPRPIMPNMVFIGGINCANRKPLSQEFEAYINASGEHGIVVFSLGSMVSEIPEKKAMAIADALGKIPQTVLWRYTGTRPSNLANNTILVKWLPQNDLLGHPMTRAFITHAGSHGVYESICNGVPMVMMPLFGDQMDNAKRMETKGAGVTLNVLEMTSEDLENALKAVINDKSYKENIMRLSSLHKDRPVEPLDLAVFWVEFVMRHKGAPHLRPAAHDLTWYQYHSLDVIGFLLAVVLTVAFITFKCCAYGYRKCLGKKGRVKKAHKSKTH
# [3] = molecular target: T3, UGT1A6 (Homo sapiens, UniProt P19224); test: Glucuronidation by recombinant human UGT1A6; conditions: UGT1A6, substrate 10 μM
# T3 sequence (P19224 27-532): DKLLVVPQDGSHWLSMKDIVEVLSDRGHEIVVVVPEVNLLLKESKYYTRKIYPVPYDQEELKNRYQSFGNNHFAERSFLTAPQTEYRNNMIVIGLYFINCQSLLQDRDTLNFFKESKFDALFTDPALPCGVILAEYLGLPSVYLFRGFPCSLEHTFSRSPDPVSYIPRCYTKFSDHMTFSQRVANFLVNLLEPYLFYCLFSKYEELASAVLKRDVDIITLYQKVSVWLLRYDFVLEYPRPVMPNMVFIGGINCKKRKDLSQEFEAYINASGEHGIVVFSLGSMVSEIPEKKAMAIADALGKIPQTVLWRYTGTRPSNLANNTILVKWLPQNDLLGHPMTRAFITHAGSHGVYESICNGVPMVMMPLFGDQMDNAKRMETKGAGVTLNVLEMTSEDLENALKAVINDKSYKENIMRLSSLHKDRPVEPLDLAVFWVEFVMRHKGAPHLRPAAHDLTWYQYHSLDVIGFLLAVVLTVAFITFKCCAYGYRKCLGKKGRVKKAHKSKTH
# [4] = molecular target: T4, UGT1A9 (Homo sapiens, UniProt O60656); test: Glucuronidation by recombinant human UGT1A9
# T4 sequence (O60656 26-530): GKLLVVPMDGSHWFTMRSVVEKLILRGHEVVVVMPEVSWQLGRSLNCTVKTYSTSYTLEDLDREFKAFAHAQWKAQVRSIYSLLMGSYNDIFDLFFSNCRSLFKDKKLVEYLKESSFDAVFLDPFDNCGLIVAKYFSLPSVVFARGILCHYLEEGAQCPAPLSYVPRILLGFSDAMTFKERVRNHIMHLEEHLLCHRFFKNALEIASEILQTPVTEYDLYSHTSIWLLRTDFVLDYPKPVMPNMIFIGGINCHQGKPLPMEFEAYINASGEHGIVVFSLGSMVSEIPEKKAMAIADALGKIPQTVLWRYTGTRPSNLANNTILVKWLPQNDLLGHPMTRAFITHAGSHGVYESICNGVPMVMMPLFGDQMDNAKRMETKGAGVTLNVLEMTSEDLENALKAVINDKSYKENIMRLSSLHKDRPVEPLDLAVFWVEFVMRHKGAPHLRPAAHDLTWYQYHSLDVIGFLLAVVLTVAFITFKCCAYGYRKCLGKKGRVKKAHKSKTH
# [5] = molecular target: T5, UGT2B7 (Homo sapiens, UniProt P16662); test: Glucuronidation by recombinant human UGT2B7; conditions: UGT2B7, substrate 10 μM
# T5 sequence (P16662 24-529): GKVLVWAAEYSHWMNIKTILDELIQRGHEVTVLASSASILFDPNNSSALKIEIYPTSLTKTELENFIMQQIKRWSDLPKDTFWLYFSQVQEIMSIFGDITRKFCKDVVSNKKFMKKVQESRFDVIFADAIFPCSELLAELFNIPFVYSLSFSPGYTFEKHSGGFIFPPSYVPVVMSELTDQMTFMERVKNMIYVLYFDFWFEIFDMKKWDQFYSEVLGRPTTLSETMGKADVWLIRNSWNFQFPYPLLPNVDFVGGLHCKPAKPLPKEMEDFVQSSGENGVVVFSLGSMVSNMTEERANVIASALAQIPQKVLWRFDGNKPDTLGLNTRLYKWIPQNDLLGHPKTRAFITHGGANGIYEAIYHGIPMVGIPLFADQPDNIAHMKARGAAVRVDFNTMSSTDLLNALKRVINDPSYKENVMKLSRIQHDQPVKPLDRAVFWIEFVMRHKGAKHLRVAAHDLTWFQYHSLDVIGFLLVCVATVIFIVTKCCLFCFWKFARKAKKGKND
# [6] = molecular target: T6, UGT1A10 (Homo sapiens, UniProt Q9HAW8); test: Glucuronidation by recombinant human UGT1A10; conditions: UGT1A10, substrate 10 μM
# T6 sequence (Q9HAW8 26-530): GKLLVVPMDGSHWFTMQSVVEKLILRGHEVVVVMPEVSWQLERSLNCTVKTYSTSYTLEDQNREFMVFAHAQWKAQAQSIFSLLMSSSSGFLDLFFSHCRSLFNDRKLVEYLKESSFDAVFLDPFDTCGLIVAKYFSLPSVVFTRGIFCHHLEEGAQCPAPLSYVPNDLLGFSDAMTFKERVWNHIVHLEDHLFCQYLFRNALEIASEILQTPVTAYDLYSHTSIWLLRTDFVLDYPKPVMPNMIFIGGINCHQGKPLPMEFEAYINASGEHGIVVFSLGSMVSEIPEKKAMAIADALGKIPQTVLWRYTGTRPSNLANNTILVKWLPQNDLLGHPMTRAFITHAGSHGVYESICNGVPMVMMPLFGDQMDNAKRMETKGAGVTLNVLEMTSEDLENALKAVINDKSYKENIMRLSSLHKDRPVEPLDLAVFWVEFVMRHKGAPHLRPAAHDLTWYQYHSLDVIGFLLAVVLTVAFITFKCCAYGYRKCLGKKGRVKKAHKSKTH
# [7] = molecular target: T7, UGT1A8 (Homo sapiens, UniProt Q9HAW9); test: Glucuronidation by recombinant human UGT1A8; conditions: UGT1A8, substrate 35 μM
# T7 sequence (Q9HAW9 26-530): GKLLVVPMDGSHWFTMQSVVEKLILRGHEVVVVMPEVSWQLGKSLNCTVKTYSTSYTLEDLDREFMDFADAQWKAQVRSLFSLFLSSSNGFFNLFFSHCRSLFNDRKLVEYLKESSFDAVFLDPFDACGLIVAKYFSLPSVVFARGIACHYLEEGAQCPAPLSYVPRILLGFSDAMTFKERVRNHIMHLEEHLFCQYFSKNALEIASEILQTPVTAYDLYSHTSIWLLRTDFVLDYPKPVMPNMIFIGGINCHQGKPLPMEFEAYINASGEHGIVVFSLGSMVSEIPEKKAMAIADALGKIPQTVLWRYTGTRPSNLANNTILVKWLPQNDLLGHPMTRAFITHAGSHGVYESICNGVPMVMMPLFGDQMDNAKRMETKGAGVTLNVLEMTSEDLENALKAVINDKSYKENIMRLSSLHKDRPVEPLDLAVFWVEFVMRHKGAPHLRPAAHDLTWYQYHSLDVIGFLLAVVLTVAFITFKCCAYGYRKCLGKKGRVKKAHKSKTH
# [8] = cited from earlier work
# [9] = cited from earlier work; remark: listed apart in the source
smiles,measurement,setting,value
"O=c1c(O)c(-c2ccc(O)cc2)oc2cc(O)ccc12 [7,4'DHFnol, 3,7,4’-trihydroxyflavone]",Degree of regiospecificity (major glucuronide in bracket),"[1]; UGT1A1, substrate 2.5 μM","No (3-O, 7-O)"
same,Degree of regiospecificity (major glucuronide in bracket),"[1]; UGT1A1, substrate 10 μM","No (3-O, 7-O)"
same,Hydroxyl positions glucuronidated,"[1]; UGT1A1, substrate 10 μM",glucuronidated all the three hydroxyl groups
same,Degree of regiospecificity (major glucuronide in bracket),"[1]; UGT1A1, substrate 10 μM, listed as 7,4’DHFnol",no regiospecific preference for any position
same,Degree of regiospecificity (major glucuronide in bracket),"[2]; UGT1A3, substrate 2.5 μM",Dominant (7-O)
same,Degree of regiospecificity (major glucuronide in bracket),"[2]; UGT1A3, substrate 10 μM",Weak (7-O)
same,Hydroxyl positions glucuronidated,"[2]; UGT1A3, substrate 10 μM",glucuronidated hydroxyl groups at C-3 and C-7 positions only
same,Degree of regiospecificity (major glucuronide in bracket),"[2]; UGT1A3, substrate 10 μM, listed as 7,4’DHFnol",weak regiospecific preference for 7-O over 3-O position
same,Hydroxyl positions glucuronidated,[3],no position was glucuronidated
same,Degree of regiospecificity (major glucuronide in bracket),"[4]; UGT1A9, substrate 2.5 μM",Moderate (3-O)
same,Degree of regiospecificity (major glucuronide in bracket),"[4]; UGT1A9, substrate 10 μM",Moderate (3-O)
same,Hydroxyl positions glucuronidated,"[4]; UGT1A9, substrate 10 μM",glucuronidated hydroxyl groups at C-3 and C-7 positions only
same,Degree of regiospecificity (major glucuronide in bracket),"[4]; UGT1A9, substrate 10 μM, listed as 7,4’DHFnol",moderate
same,Hydroxyl positions glucuronidated,[5],glucuronidated all the three hydroxyl groups
same,Hydroxyl positions glucuronidated,[6],glucuronidated all the three hydroxyl groups
"O=c1c(O)c(-c2ccccc2)oc2cc(O)ccc12 [7HFnol, 3,7-dihydroxyflavone]",Degree of regiospecificity (major glucuronide in bracket),"[1]; UGT1A1, substrate 2.5 μM",weak regiospecificity for 7-O position; also recorded: weakly preferred the glucuronidation of 7-O position
same,Degree of regiospecificity (major glucuronide in bracket),"[1]; UGT1A1, substrate 10 μM","no preference; also recorded: did not show any regiospecific preference; also recorded: no regiospecificity; also recorded: No (3-O,7-O)"
same,Degree of regiospecificity (3-O vs 7-O),"[1]; UGT1A1, substrate 35 μM",no regiospecificity
same,Degree of regiospecificity (major glucuronide in bracket),"[2]; UGT1A3, substrate 2.5 μM",Moderate (7-O)
same,Degree of regiospecificity (major glucuronide in bracket),"[2]; UGT1A3, substrate 10 μM",dominantly regiospecific by glucuronidating hydroxyl group only at C-7 position; also recorded: Dominant (7-O)
same,Hydroxyl positions glucuronidated,[3],no position was glucuronidated
same,Degree of regiospecificity (3-O vs 7-O),[7],moderate regiospecificity for 3-O position
same,Degree of regiospecificity (major glucuronide in bracket),"[4]; UGT1A9, substrate 2.5 μM",moderate regiospecificity for 3-O position
same,Degree of regiospecificity (major glucuronide in bracket),"[4]; UGT1A9, substrate 10 μM",moderate regiospecificity for 3-O position
same,Degree of regiospecificity (3-O vs 7-O),"[4]; UGT1A9, substrate 35 μM",no regiospecificity
O=c1c(-c2ccc(O)cc2)coc2cc(O)cc(O)c12 [genistein],Cmax of 7-O-glucuronide relative to 4’-O-glucuronide,[8]; intravenous administration of genistein,four times higher
same,Cmax of 7-O-G relative to 4’-O-glucuronide,[8]; per-oral administration of genistein,1.85 times
"O=C(O)[C@H]1O[C@@H](Oc2cc(O)c3c(=O)c(O)c(-c4ccc(O)c(O)c4)oc3c2)[C@H](O)[C@@H](O)[C@@H]1O [quercetin,7-O-G]",Antioxidative property,[9],"stronger antioxidative property than quercetin,3-O-G"
